Measurements reported in patent US20050228016A1, “TETRAHYDROQUINOLINES FOR MODULATING THE EXPRESSION OF EXOGENOUS GENES VIA AN ECDYSONE RECEPTOR COMPLEX” (priority 2002, published 2005).

Legend:
CfEcR + LmUSP = CfEcR + LmUSP in 3T3 cells, reporter assayed 48 h after ligand
Method: 1.9—Gal4CfEcR-DEF/VP16LmRXR-EF: This construct was prepared in the same way as switch 1.1 except LmRXR-EF (SEQ ID NO: 18) was used in place of HsRXRβ-LmRXREF chimera.
(§3) To determine if any of the compounds shown in Table 1 and Table 2 can act as inducers of reporter gene activity in a transactivation assay, these compounds were tested in NIH3T3 cells transfected with pFRLUC reporter and gene expression cassettes, 1.1 to 1.8 described in Example 1. […] At 48 hr after adding ligand, the cells were harvested and reporter activity was assayed using Dual Luciferase assay kit (Promega carporation). Total relative light units (RLU) are shown. Standard methods for culture and maintenance of the cells were followed.
(§4) Transfections: DNAs corresponding to the various switch constructs outlined in Example I, specifically switches 1.1 through 1.8, were transfected into mouse NIH3T3 cells (ATCC) as follows. Cells were harvested when they reached 50% confluency and plated in 6-, 12- or 24-well plates at 125,000, 50,000, or 25,000 cells, respectively, in 2.5, 1.0, or 0.5 ml of growth medium containing 10% fetal bovine serum (FBS), respectively. The next day, the cells were rinsed with growth medium and transfected for four hours. […] For 12-well plates, 4 μl of Superfect™ was mixed with 100 μl of growth medium. 1.0 μg of reporter construct and 0.25 μg of each receptor construct of the receptor pair to be analyzed were added to the transfection mix. A second reporter construct was added [pTKRL (Promega), 0.1 μg/transfection mix] that comprises a Renilla luciferase gene operably linked and placed under the control of a thymidine kinase (TK) constitutive promoter and was used for normalization. The contents of the transfection mix were mixed in a vortex mixer and let stand at room temperature for 30 min. At the end of incubation, the transfection mix was added to the cells maintained in 400 μl growth medium. The cells were maintained at 37° C. and 5% CO2 for four hours. At the end of incubation, 500 μl of growth medium containing 20% FBS and either dimethylsulfoxide (DMSO; control) or a DMSO solution of 0.1, 1, and 10 μM ligand was added and the cells were maintained at 37° C. and 5% CO2 for 48 hours. The cells were harvested and reporter activity was assayed. The same procedure was followed for 6 and 24 well plates as well except all the reagents were doubled for 6 well plates and reduced to half for 24-well plates.
(§5) Ligands: All ligands were dissolved in DMSO and the final concentration of DMSO was maintained at 0.1% in both controls and treatments.
(§6) Reporter Assays: Cells were harvested 48 hours after adding ligands. 125, 250, or 500 μl of passive lysis buffer (part of Dual-luciferase™ reporter assay system from Promega Corporation) were added to each well of 24- or 12- or 6-well plates respectively. The plates were placed on a rotary shaker for 15 minutes. Twenty μl of lysate were assayed. Luciferase activity was measured using Dual-luciferase™ reporter assay system from Promega Corporation following the manufacturer's instructions.

Gal4DBD/AaEcR (DEF) = target: T1, Gal4DBD/AaEcR (DEF) (Aedes aegypti, UniProt P49880); experiment: cell-based; assay type: cell-based; conditions: 33 μM; 3T3 cells; 48 h; average of two wells
T1 construct: The wildtype D, E, and F domains from mosquito Aedes aegypti EcR; expressed in transfected cells; host or cells: 3T3 cells
In short: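 Single-dose ligand testing at 33 μM, applied in serum medium after 4 h transfection. Host was 3T3 cells carrying Gal4DBD/AaEcR (DEF) plus a 5× GAL4 RE-driven firefly luciferase reporter (pFRLuc).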

DmEcR + LmUSP = target: T2, DmEcR + LmUSP (Drosophila melanogaster, UniProt P34021); conditions: DmEcR + LmUSP in 3T3 cells, reporter assayed 48 h after ligand
T2 sequence (P34021 342-878): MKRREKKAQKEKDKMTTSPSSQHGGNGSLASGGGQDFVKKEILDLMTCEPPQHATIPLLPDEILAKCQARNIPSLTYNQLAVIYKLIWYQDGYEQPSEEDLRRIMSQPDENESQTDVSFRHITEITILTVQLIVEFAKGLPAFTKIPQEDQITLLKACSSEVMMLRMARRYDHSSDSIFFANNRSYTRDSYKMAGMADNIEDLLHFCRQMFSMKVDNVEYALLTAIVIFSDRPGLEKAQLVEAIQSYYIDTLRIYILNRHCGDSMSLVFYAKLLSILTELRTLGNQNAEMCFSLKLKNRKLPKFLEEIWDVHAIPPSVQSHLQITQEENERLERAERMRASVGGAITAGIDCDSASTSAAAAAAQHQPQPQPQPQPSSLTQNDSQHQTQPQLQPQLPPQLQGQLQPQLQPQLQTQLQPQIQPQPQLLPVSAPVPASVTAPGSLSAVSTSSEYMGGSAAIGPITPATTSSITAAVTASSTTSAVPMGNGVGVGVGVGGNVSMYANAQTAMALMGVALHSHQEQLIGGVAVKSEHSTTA
Method: as §3, §4, §5, §6

[1] = target: T3, Bombyx mori EcR (VP16-BmEcR, CVBE) (Bombyx mori, UniProt P49881); experiment: Z3 assay (HEK-293 clone Z3 with CVBE and 6x EcRE LacZ, β-galactosidase reporter); assay type: cell-based; conditions: 48 h, average of two wells
T3 construct: expressed in transfected cells
T3 sequence (P49881 86-606): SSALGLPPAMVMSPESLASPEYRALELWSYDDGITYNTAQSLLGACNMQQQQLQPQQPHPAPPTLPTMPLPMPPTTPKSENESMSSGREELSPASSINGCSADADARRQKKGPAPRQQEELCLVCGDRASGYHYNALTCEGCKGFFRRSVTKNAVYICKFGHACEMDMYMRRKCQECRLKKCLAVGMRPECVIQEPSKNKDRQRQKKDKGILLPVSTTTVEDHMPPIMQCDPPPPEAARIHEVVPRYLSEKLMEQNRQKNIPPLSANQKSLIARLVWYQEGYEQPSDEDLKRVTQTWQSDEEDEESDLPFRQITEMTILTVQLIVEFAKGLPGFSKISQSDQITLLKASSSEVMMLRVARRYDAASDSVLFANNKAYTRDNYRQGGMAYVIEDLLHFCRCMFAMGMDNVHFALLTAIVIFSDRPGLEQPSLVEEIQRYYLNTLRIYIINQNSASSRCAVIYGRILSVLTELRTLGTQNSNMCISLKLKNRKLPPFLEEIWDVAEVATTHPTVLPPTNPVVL

[2] = tested on: GAL4 DBD (1-147)-CfEcR(DEF)/VP16AD-βRXREF-LmUSPEF; conditions: CHO 27-63 clone, 48 h, average of two wells
Excerpt: GAL4 DBD (1-147)-CfEcR(DEF)/VP16AD-βRXREF-LmUSPEF: The wild-type D, E, and F domains from spruce budworm Choristoneura fumiferana EcR (“CfEcR-DEF”; SEQ ID NO: 1) were fused to a GAL4 DNA binding domain (“Gal4DBD1-147”; nucleotides 31 to 471 of SEQ ID NO: 2) and placed under the control of a phosphoglycerate kinase promoter (“PGK”; SEQ ID NO: 19). Helices 1 through 8 of the EF domains from Homo sapiens RXRβ and helices 9 through 12 of the EF domains of Locusta migratoria Ultraspiracle Protein (“HsRXRβ-EF-LmUSP-EF”; SEQ ID NO: 4) were fused to the transactivation domain from VP16 (“VP16AD”; SEQ ID NO: 5) and placed under the control of an elongation factor-1α promoter (“EF-1α”; SEQ ID NO: 20). Five consensus GAL4 response element binding sites (“5× GAL4RE”; comprising 5 copies of a GAL4RE comprising SEQ ID NO: 7) were fused to a synthetic TATA minimal promoter (SEQ ID NO: 21) and placed upstream of the luciferase reporter gene (SEQ ID NO: 9).
CHO cells were transiently transfected with transcription cassettes for GAL4 DBD (1-147) CfEcR(DEF) and for VP16AD βRXREF-LmUSPEF controlled by ubiquitously active cellular promoters (PGK and EF-1α, respectively) on a single plasmid. Stably transfected cells were selected by Zeocin resistance. Individually isolated CHO cell clones were transiently transfected with a GAL4 RE-luciferase reporter (pFR Luc). 27-63 clone was selected using Hygromycin.
Cells were trypsinized and diluted to a concentration of 2.5×10^4 cells mL. 100 μL of cell suspension was placed in each well of a 96 well plate and incubated at 37° C. under 5% CO2 for 24 h. Ligand stock solutions were prepared in DMSO and diluted 300 fold for all treatments. Dose response testing consisted of 8 concentrations ranging from 33 μM to 0.01 μM.
(§1) Luciferase reporter gene expression was measured 48 h after cell treatment using Bright-Glo™ Luciferase Assay System from Promega (E2650). Luminescence was detected at room temperature using a Dynex MLX microtiter plate luminometer.
(§2) Each assay was conducted in two separate wells, and the two values were averaged. Fold inductions were calculated by dividing relative light units (“RLU”) in ligand treated cells with RLU in DMSO treated cells.

[3] = tested on: GAL4 DBD-CfEcR(DEF)/VP16AD-MmRXRE; conditions: CHO 13B3 clone, 48 h, average of two wells
Excerpt: GAL4 DBD-CfEcR(DEF)/VP16AD-MmRXRE: The wild-type D, E, and F domains from spruce budworm Choristoneura fumiferana EcR (“CfEcR-DEF”; SEQ ID NO: 1) were fused to a GAL4 DNA binding domain (“Gal4DBD1-147”; nucleotides 31 to 471 of SEQ ID NO: 2) and placed under the control of the SV40e promoter of pM vector (PT3119-5, Clontech, Palo Alto, Calif.). The D and E domains from Mus Musculus RXR (“MmRXR-DE”; SEQ ID NO: 22) were fused to the transactivation domain from VP16 (“VP16AD”; SEQ ID NO: 5) and placed under the control of the SV40e promoter of the pVP16 vector (PT3127-5, Clontech, Palo Alto, Calif.).
CHO cells were transiently transfected with transcription cassettes for GAL4 DBD-CfEcR(DEF) and for VP16AD-MmRXRE controlled by SV40e promoters. Stably transfected cells were selected using Hygromycin. Individually isolated CHO cell clones were transiently transfected with a GAL4 RE-luciferase reporter (pFR-Luc, Stratagene, La Jolla, Calif.). The 13B3 clone was selected using Zeocin.
Cells were trypsinized and diluted to a concentration of 2.5×10^4 cells mL. 100 μL of cell suspension was placed in each well of a 96 well plate and incubated at 37° C. under 5% CO2 for 24 h. Ligand stock solutions were prepared in DMSO and diluted 300 fold for all treatments.
as §1, §2

T1 sequence (P28704 286-520 A311G/G315S/G445S/I449V): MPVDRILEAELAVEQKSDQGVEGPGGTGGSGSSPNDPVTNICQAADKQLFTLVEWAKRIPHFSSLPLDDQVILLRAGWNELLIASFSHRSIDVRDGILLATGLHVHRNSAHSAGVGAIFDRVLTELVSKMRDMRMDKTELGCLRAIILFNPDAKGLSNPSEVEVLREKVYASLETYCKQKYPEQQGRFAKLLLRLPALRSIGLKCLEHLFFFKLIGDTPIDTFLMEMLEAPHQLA
T1 sequence (P49880 405-776): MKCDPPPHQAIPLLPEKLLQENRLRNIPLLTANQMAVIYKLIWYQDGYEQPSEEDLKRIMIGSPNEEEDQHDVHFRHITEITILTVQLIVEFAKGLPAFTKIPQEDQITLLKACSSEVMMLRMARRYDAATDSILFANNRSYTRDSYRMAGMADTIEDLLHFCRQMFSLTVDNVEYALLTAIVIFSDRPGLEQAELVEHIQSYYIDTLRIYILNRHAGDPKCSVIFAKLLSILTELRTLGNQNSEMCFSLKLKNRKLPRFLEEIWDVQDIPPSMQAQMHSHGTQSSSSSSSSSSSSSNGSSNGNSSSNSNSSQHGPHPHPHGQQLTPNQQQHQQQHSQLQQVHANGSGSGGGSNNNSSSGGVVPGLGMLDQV

Row | Structure (SMILES) | Fold Induction (10 μM) (CfEcR + LmUSP) [fold] | Fold Induction Average, AA_3T3V1 Assay 33 μM (Gal4DBD/AaEcR (DEF)) [fold] | Fold Induction (10 μM) (DmEcR + LmUSP) [fold] | Fold Induction (100 μM) (DmEcR + LmUSP) [fold] | Fold Induction Average, Z3V1 Assay 33 μM [1] [fold] | Fold Induction Average, 27-63V1 Assay 33 μM [2] [fold] | Fold Induction Average, 13B3V1 Assay 33 μM [3] [fold]
1 | C[C@H]1C[C@@H](Nc2ccc(F)cc2)c2cc(F)ccc2N1C(=O)c1ccc(F)cc1 (relative stereo) [Compound I-8] | 3 | 153 | 2 | 7 |  |  | 
2 | C[C@H]1C[C@H](Nc2ccc(F)cc2)c2cc(F)ccc2N1C(=O)c1ccc(F)cc1 (relative stereo) [Compound I-9] | 3 | 131 | 9 | 2 | 16 |  | 
3 | C[C@H]1C[C@@H](Nc2ccc(F)cc2)c2cc(F)ccc2N1C(=O)c1ccccc1 (relative stereo) [Compound I-10] | 1 | 164 | 1 | 1 |  |  | 
4 | C[C@H]1C[C@H](Nc2ccc(F)cc2)c2cc(F)ccc2N1C(=O)c1ccccc1 (relative stereo) [Compound I-11] | 1 | 387 | 5 | 3 | 32 |  | 
5 | COc1cccc(C(=O)N2c3ccc(C)cc3[C@@H](Nc3ccc(C)cc3)C[C@@H]2C)c1 (relative stereo) [Compound I-86] |  | 2 |  |  | 1 | 1 | 
6 | COC(=O)c1ccc(C(=O)N2c3ccc(F)cc3C(Nc3ccc(F)cc3)CC2C)cc1 (stereo not shown) [Compound I-94] |  | 798 |  |  | 48 | 32 | 
7 | CC1CC(Nc2ccccc2)c2ccccc2N1C(=O)c1ccno1 (stereo not shown) [Compound I-104] |  | 347 |  |  | 1 | 1 | 
8 | Cc1ccc(NC2CC(C)N(C(=O)c3cccc([N+](=O)[O-])c3)c3ccc(C)cc32)cc1 (stereo not shown) [Compound I-154] |  | 1 |  |  | 1 |  | 4
9 | CC1CC(N(C(=O)C2CC2)c2ccccc2)c2ccccc2N1C(=O)C1CC1 (stereo not shown) [Compound I-155] |  | 1 |  |  | 1 |  | 1
10 | CC1CC(Nc2ccccc2)c2ccccc2N1C(=O)c1cccc([N+](=O)[O-])c1 (stereo not shown) [Compound I-158] |  | 207 |  |  | 18 |  | 118
11 | CC1CC(Nc2ccccc2)c2ccccc2N1C(=O)C=Cc1ccccc1 (stereo not shown) [Compound I-163] |  | 4 |  |  | 27 |  | 26
12 | CC1CC(N(C(=O)c2cccc(Br)c2)c2ccccc2)c2ccccc2N1C(=O)c1cccc(O)c1 (stereo not shown) [Compound I-166] |  | 58 |  |  | 1 |  | 2
13 | CCCc1ccc(C(=O)N2c3ccccc3C(Nc3ccccc3)CC2C)cc1 (stereo not shown) [Compound I-173] |  | 172 |  |  | 3 |  | 1
14 | CC1CC(Nc2ccccc2)c2ccccc2N1C(=O)COc1ccc(Cl)cc1 (stereo not shown) [Compound I-180] |  | 9 |  |  | 1 |  | 1
15 | Cc1ccccc1NC1CC(C)N(C(=O)c2ccccc2)c2c(C)cccc21 (stereo not shown) [Compound I-184] |  | 1 |  |  |  | 1 | 
16 | CCNC(=O)N1c2ccccc2C(Nc2ccccc2)CC1C (stereo not shown) [Compound I-210] |  | 12 |  |  |  | 1 | 
